In patent US7605168B2 (Plexxikon, Inc., priority 2004, dated 2009):

Tests used:
[1] = target: T1, PDE4B: catalytic domain of human PDE4B from S152-S528 (Homo sapiens, UniProt Q07343); experiment: PDE4 IC50 determination by Scintillation Proximity Assay (SPA), PDE4B catalytic domain; assay type: biochemical; settings: [3H]cAMP SPA, 30 min at 30° C.
T1 construct: The catalytic domain of human PDE4B from S152-S528; His6 (N, cleaved yes); thrombin cleavage site (N, cleaved yes); made in house; host or cells: E. coli BL21 (DE3) RIL
Experimental: (§1) IC50s were determined by Scintillation Proximity Assay (SPA). The principle of the assay is based on the fact that cAMP, the PDE4 substrate, binds weakly to Yittrium Silicate SPA beads, whereas AMP, the product of PDE4 hydrolysis binds strongly. Thus, the extent of PDE4 hydrolysis of a sample of [^3H]cAMP can be measured because only the [^3H]AMP produced by PDE4 hydrolysis will bind to the SPA beads and produce a scintillation signal.
Enzyme was stored in 50% glycerol at −20°.
(§2) In addition to the compound dilutions, each assay plate contained control wells with 1 μl of DMSO (to define 0% enzyme inhibition) or 1 μl of 200 μM roflumilast (to define 100% enzyme inhibition). Using a Beckman FX robot, 10 μl of [^3H] cAMP (Amersham TRK559) at […] in assay buffer (50 mM Tris, pH 7.5; 8.3 mM MgCl; 1.7 mM EGTA; 0.01% BSA) was transferred to each assay well. Next, 10 μl of PDE4 enzyme in assay buffer was added and the plates were shaken for 30 s. at 1000 rpm to start the cAMP hydrolysis reaction. The concentrations of enzyme used were: PDE4B, 80 ng/ml; PDE4D, 4 ng/ml; PDE4B2, 2.5 μl of 50% glycerol stock/ml; PDE4D5 0.083 μl of 50% glycerol stock/ml. Assay plates were covered and incubated for 30 min. at 30° C. Reactions were stopped by robotic addition of 10 μl of 5 mg/ml SPA beads (Amersham RPNQ0013) in 18 mM ZnSO4. The assay plates were covered with clear plastic film, centrifuged for 1 min. at 1000 RPM to settle the SPA beads, and counted using a Wallac TriLux scintillation counter. IC50's were calculated from the raw assay data by non-linear regression curve fitting using the Assay Explorer software package from MDL.

[2] = target: T2, PDE4B2: full-length human PDE4B2 isozyme (Homo sapiens, UniProt Q07343); experiment: PDE4 IC50 determination by Scintillation Proximity Assay (SPA), full-length PDE4B2; assay type: biochemical; settings: cell lysate, [3H]cAMP SPA
T2 construct: made in house; host or cells: baculovirus infected insect cells (pFastBacHT)
Experimental: (§3) The enzyme was not purified from the cell lysates, so enzyme concentrations were not determined. Enzyme was stored in 50% glycerol at −20°.
as §1, §2

[3] = target: T3, PDE4D5: full-length human PDE4D5 isozyme (Homo sapiens, UniProt Q08499); experiment: PDE4 IC50 determination by Scintillation Proximity Assay (SPA), full-length PDE4D5; assay type: biochemical; settings: cell lysate, [3H]cAMP SPA
T3 construct: made in house; host or cells: baculovirus infected insect cells (pFastBacHT)
Experimental: as §3, §1, §2

[4] = test system: TNF-α release from whole blood cultures stimulated with LPS; experiment: IC50 by TNF alpha production upon stimulation of whole blood cultures with LPS; assay type: cell-based; settings: human whole blood (buffy coat) culture, 100 ng/ml LPS, 4 hours; read-out: h TNFα IC50
Experimental: Compounds were assayed to generate IC50 numbers based on the inhibition of TNF-α release from whole blood cultures, using the following assay protocol (see Table 5 for compounds tested and results). Inhibition of PDE4B results in the inhibition of TNF-α release by whole blood cultures stimulated with lipopolysaccharide (LPS). The measurement of TNF-α release was used to assess compounds as PDE4B inhibitors.
Compounds were provided in DMSO at 20 mM and 2 μl per well was added to one row of a dilution plate. Added 98 μl of RPMI 1640 media with 2.5% heat inactivated FBS to each well containing compound. The same media with 2% DMSO was prepared and 60 μl was added to each of the empty wells in the dilution plate. The compound was serially diluted 1:3 (30 μl to 60 μl of media) for a total of 8 concentrations per compound. Wells were also prepared with 50 μM roflumilast and piclamilast as 100% inhibition controls, and 2% DMSO in media was used as 0% inhibition control. A 20 μl aliquot of each sample was transferred to an assay plate in duplicate.
Human buffy coat was obtained from the Stanford Medical School Blood Center and diluted with 7 volumes of RPMI 1640 media with 1% penicillin/streptomycin and 2.5% heat inactivated FBS. A 160 μl aliquot of the diluted blood was added to each well of the assay plates, mixed and incubated for 1 hour at 37° C. in 5% CO2. LPS (Sigma catalog number L2637) that had been diluted to 1 mg/ml in PBS and stored as 20 μl aliquots at −20° C. was thawed and diluted 1000× to 1 μg/ml. A 20 μl aliquot of this was added to each sample (final concentration 100 ng/ml LPS) after the 1 hour incubation. A background sample was prepared without addition of LPS as well. The samples were mixed on a shaker for one minute at 900 RPM and incubated for 4 hours at 37° C. in 5% CO2. The plates were then put on a shaker for one minute at 900 RPM, followed by centrifuging at 100×g for 10 minutes, deceleration setting of 5. The top 75 μl of supernatant was carefully pipetted to a new plate and frozen at −20° C.
A 50 μl aliquot of incubation buffer (Biosource International Immunoassay Kit:Human TNF-α catalog number KHC3011) was added to each well of a plate coated with monoclonal antibody specific for hTNF-α (Biosource kit). The supernatant blood samples were thawed and a 50 μl aliquot along with 50 μl of diluent buffer (Biosource kit) were added to incubation buffer and the samples were incubated for 2 hours at room temperature. The samples were washed 4 times with 300 μl/well wash buffer (Biosource kit). A 100 μl aliquot of biotinylated anti-TNFalpha (Biosource kit) was added and the samples incubated for 1 hour at room temperature. The samples were washed 4 times with 300 μl/well wash buffer. A 100 μl aliquot of Streptavidin-HRP solution (BioSource kit) was added and the samples incubated for 30 minutes at room temperature. The samples were washed 4 times with 300 μl/well wash buffer. A 100 μl aliquot of Chromagen (Biosource kit) was added and the samples incubated in the dark for 30 minutes. A 100 μl aliquot of stop solution (2N H2SO4) was added to each sample and samples were read at 450 nm on a WallacVictor for 0.1 sec/well.

T1 sequence (Q07343 324-700): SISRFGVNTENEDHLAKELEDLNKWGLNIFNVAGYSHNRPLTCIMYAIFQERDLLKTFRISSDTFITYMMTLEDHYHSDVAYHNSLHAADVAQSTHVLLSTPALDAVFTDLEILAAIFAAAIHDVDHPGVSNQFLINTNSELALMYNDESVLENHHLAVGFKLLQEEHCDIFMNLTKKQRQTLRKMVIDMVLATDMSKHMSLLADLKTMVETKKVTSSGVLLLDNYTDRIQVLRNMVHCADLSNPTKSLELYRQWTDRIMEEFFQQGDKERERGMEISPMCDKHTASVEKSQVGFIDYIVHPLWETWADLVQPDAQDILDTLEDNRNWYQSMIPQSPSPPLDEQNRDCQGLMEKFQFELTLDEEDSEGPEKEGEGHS
T3 sequence (Q08499 with tags, fused parts or gaps isoform Q08499-6): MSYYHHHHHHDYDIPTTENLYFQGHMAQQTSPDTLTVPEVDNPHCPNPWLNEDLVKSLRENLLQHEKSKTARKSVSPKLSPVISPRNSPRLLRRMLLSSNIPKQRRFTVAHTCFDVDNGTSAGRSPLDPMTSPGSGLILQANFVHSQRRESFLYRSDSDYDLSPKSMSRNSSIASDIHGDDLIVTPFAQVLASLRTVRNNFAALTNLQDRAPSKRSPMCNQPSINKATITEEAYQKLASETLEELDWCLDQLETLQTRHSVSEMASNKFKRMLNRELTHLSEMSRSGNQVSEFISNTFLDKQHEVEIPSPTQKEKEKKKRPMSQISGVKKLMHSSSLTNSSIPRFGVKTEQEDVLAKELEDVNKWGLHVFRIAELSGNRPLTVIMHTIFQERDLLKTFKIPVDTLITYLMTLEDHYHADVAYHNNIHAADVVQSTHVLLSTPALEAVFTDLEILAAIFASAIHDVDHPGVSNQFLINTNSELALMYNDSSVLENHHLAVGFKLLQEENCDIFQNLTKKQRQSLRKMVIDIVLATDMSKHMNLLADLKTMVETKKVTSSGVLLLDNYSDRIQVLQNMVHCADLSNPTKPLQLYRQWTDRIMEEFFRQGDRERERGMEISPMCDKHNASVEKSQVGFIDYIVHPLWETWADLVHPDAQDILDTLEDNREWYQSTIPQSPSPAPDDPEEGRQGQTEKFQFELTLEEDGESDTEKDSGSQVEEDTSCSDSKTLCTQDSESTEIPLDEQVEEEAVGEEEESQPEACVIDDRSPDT
T2 sequence (Q07343 with tags, fused parts or gaps isoform Q07343-2): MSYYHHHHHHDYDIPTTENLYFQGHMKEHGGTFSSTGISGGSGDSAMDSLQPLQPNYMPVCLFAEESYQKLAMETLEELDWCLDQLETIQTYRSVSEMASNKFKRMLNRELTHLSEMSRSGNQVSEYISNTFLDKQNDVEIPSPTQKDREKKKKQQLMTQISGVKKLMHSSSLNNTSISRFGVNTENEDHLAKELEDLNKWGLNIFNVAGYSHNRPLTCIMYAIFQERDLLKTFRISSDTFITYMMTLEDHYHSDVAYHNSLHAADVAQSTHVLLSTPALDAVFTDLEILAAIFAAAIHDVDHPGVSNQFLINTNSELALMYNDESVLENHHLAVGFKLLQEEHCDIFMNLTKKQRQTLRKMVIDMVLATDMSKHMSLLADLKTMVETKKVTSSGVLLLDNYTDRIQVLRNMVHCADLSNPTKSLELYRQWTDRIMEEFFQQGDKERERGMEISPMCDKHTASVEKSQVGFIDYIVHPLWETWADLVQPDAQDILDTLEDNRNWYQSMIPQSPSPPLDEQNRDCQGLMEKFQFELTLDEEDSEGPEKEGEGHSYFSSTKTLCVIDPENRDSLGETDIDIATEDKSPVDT

| IC50 [1] | IC50 [2] | IC50 [3] | IC50 [4] | SMILES |
| --- | --- | --- | --- | --- |
| < 10 µM | < 10 µM | < 10 µM | > 10 µM | COc1ccc(-c2cn(S(=O)(=O)c3ccc(C)c4ccccc34)c3ncccc23)cc1OC [Compound 12, 3-(3,4-Dimethoxy-phenyl)-1-(4-methyl-naphthalene-1-sulfonyl)-1H-pyrrolo[2,3-b]pyridine] |
| < 10 µM | < 10 µM | < 10 µM | ≤ 10 µM | COc1ccc(-c2cn(S(=O)(=O)c3cccc4cnccc34)c3ncccc23)cc1OC [Compound 14, 5-[3-(3,4-Dimethoxy-phenyl)-pyrrolo[2,3-b]pyridine-1-sulfonyl]-isoquinoline] |
| < 10 µM | < 10 µM | < 10 µM | ≤ 10 µM | COc1ccc(-c2cn(S(=O)(=O)c3cccc4ccccc34)c3ncccc23)cc1OC [Compound 16, 3-(3,4-Dimethoxy-phenyl)-1-(naphthalene-1-sulfonyl)-1H-pyrrolo[2,3-b]pyridine] |
| < 10 µM | < 10 µM | < 10 µM | ≤ 10 µM | COc1ccc(-c2cn(S(=O)(=O)c3cccc4cccnc34)c3ccccc23)cc1OC [Compound 21, 8-[3-(3,4-dimethoxy-phenyl)-indole-1-sulfonyl]-quinoline] |
| < 10 µM | < 10 µM | < 10 µM | ≤ 10 µM | COc1ccc(-c2cn(C(=O)Nc3ccc(Cl)cc3)c3ncccc23)cc1OC [Compound 26, 3-(3,4-dimethoxy-phenyl)-pyrrolo[2,3-b]pyridine-1-carboxylic acid (4-chloro-phenyl)-amide] |
| < 10 µM | < 10 µM | < 10 µM | ≤ 10 µM | COc1ccc(NC(=O)n2cc(-c3ccc(OC)c(OC)c3)c3cccnc32)cc1Cl [Compound 27, 3-(3,4-Dimethoxy-phenyl)-pyrrolo[2,3-b]pyridine-1-carboxylic acid (3-chloro-4-methoxy-phenyl)-amide] |
| < 10 µM | < 10 µM | < 10 µM | ≤ 10 µM | COc1cc(NC(=O)n2cc(-c3ccc(OC)c(OC)c3)c3cccnc32)cc(OC)c1 [Compound 29, 3-(3,4-Dimethoxy-phenyl)-pyrrolo[2,3-b]pyridine-1-carboxylic acid (3,5-dimethoxy-phenyl)-amide] |
| < 10 µM | < 10 µM | < 10 µM | ≤ 10 µM | COc1ccc(-c2cn(C(=O)Nc3cccc(C(C)=O)c3)c3ncccc23)cc1OC [Compound 34, 3-(3,4-Dimethoxy-phenyl)-pyrrolo[2,3-b]pyridine-1-carboxylic acid (3-acetyl-phenyl)-amide] |
| < 10 µM | < 10 µM | < 10 µM | ≤ 10 µM | COc1ccc(-c2cn(C(=O)Nc3ccc(Cl)c(Cl)c3)c3ncccc23)cc1OC [Compound 37, 3-(3,4-Dimethoxy-phenyl)-pyrrolo[2,3-b]pyridine-1-carboxylic acid (3,4-dichloro-phenyl)-amide] |
| < 10 µM | < 10 µM | > 10 µM | > 10 µM | COc1ccc(-c2cn(C(=O)Nc3cccc([N+](=O)[O-])c3)c3ncccc23)cc1OC [Compound 38, 3-(3,4-Dimethoxy-phenyl)-pyrrolo[2,3-b]pyridine-1-carboxylic acid (3-nitro-phenyl)-amide] |
| < 10 µM | < 10 µM | < 10 µM | ≤ 10 µM | COc1ccc(-c2cn(C(=S)Nc3ccccc3)c3ncccc23)cc1OC [Compound 41, 3-(3,4-dimethoxy-phenyl)-pyrrolo[2,3-b]pyridine-1-carbothioic acid phenylamide] |
| < 10 µM | < 10 µM | < 10 µM | ≤ 10 µM | COc1ncc(-c2cn(S(=O)(=O)c3cccc4cccnc34)c3ncccc23)cn1 [Compound 43, 8-[3-(2-methoxy-pyrimidin-5-yl)-pyrrolo[2,3-b]pyridine-1-sulfonyl]-quinoline] |
| < 10 µM | < 10 µM | < 10 µM | > 10 µM | CCOc1ccccc1C(=O)n1ccc2c(-c3ccc(OC)c(OC)c3)ccnc21 [Compound 51, [4-(3,4-Dimethoxy-phenyl)-pyrrolo[2,3-b]pyridin-1-yl]-(2-ethoxy-phenyl)-methanone] |
| < 10 µM | < 10 µM | < 10 µM | > 10 µM | CCOc1cc([N+](=O)[O-])ccc1C(=O)n1cc(-c2ccc(OC)c(OC)c2)c2cccnc21 [Compound 54, [3-(3,4-Dimethoxy-phenyl)-pyrrolo[2,3-b]pyridin-1-yl]-(2-ethoxy-4-nitro-phenyl)-methanone] |
| < 10 µM | < 10 µM | < 10 µM | ≤ 10 µM | COc1ccc(-c2cn(C(=O)c3ccccc3)c3ncccc23)cc1OC [Compound 55, [3-(3,4-Dimethoxy-phenyl)-pyrrolo[2,3-b]pyridin-1-yl]phenylmethanone-amide] |
| < 10 µM | < 10 µM | < 10 µM | > 10 µM | COc1ccc(-c2cn(C(=O)c3cnccc3C(F)(F)F)c3ncccc23)cc1OC [Compound 57, [3-(3,4-Dimethoxy-phenyl)-pyrrolo[2,3-b]pyridin-1-yl]-(4-trifluoromethypyridn-3-yl)-methanone-amide] |
| < 10 µM | < 10 µM | < 10 µM | ≤ 10 µM | COc1ccc(-c2cn(C(=O)c3cccc4ccccc34)c3ncccc23)cc1OC [Compound 58, [3-(3,4-Dimethoxy-phenyl)-pyrrolo[2,3-b]pyridin-1-yl]-(1-naphthyl)-methanone-amide] |
| < 10 µM | < 10 µM | < 10 µM | ≤ 10 µM | COc1ccc(-c2cn(C(=O)c3cccnc3Cl)c3ncccc23)cc1OC [Compound 59, [3-(3,4-Dimethoxy-phenyl)-pyrrolo[2,3-b]pyridin-1-yl]-(2-chloropyridin-3-yl)-methanone-amide] |
| < 10 µM | < 10 µM | < 10 µM | ≤ 10 µM | COc1ccc(-c2cn(C(C)=O)c3ncccc23)cc1OC [Compound 67, 1-[3-(3,4-Dimethoxy-phenyl)-pyrrolo[2,3-b]pyridin-1-yl]-ethanone] |
